The text below walks through data of paper PMC9221018, “Sulfonamide-Derived Dithiocarbamate Gold(I) Complexes Induce the Apoptosis of Colon Cancer Cells by the Activation of Caspase 3 and Redox Imbalance” (Biomedicines, 2022).

One may read the IC50 as the concentration that gives 50% inhibition. A higher IC50 goes with a need for much substance.

The subject of data set [1] is Human epithelial fibroblast cells (NHDF-Ad). As to the kind of experiment: MTT viability assay in human epithelial fibroblasts. In kind it is cell-based. The following applies: complexes at their IC50 (1 1.14 μM, 3 1.7 μM, 8 7.22 μM, 9 8.56 μM), 72 h. The protocol:
(§1) The human Caco-2 cell line (TC7 clone) was kindly provided by Dr. Edith Brot-Laroche (Université Pierre et Marie Curie-Paris 6, UMR S 872, Les Cordeliers, France). Human epithelial fibroblast cells (NHDF-Ad, Lonza®®, Porriño, Spain) were kindly provided by Dr. Gracia Mendoza (Aragon Health Research Institute, IIS Aragón, Spain). Caco-2 cells (passages 40–70) and fibroblasts (passages 10–30) were maintained in a humidified atmosphere of 5% CO2 at 37 °C and grown in medium following the method used by Quero et al.. The Caco-2 cells were sub-cultured in 25 cm^2 plastic flasks at a density of 1.2 × 10^4 cells/cm^2, while the fibroblasts were sub-cultured on 75 cm^2 plastic flasks at a density of 1 × 10^4 cells/cm^2. The culture medium was replaced every 2 days.
(§2) The gold complexes were diluted in dimethyl sulfoxide (DMSO) as a 10 mM stock solution, and then diluted in cell culture medium at the desired concentrations.
(§3) For the cytotoxicity screening assays, Caco-2 cells were seeded in 96-well plates at a density of 4 × 10^3 cells/well. The culture medium was replaced with medium containing the drug panel 24 h post-seeding, and the cells were incubated for 24, 48 and 72 h. […] In differentiated Caco-2 and fibroblasts, culture medium containing metal gold complexes was added 15 days post-seeding, and the cells were incubated for 72 h. The antiproliferative effect was measured using an MTT assay, as previously described by Mármol et al.. The absorbance at 540/620 nm was measured using a SPECTROstar Nano (BMG Labtech, Ortenberg, Germany). In order to determine the selectivity index (SI), the IC50 value of the differentiated Caco-2 cells was divided by IC50 value in undifferentiated Caco-2, obtaining the ratio of the normal/cancerous cells’ toxicity.

A short description of data set [2]: n-octanol-water distribution coefficient, shake-flask method. It counts as physicochemical. To be noted: n-octanol/buffered saline pH 7.4, shake-flask. The protocol: The n-octanol−water coefficients of the complexes were determined using a shake-flask method, as reported previously. Briefly, 100 mL buffered-saline (0.15 M NaCl, 10 mM phosphate [PO4^3−] buffer, pH 7.4) and 100 mL n-octanol were shaken for 72 h. The addition of 1 mg of the complexes followed by the centrifugation and separation of both phases gave two solutions, which were analysed by UV absorbance spectroscopy to determine their concentration in each phase. The corresponding value of log P was defined as log{[compound(organic)]/[compound(aqueous)]}.

In data set [3] the test system is Caco-2 cells. As to the kind of experiment: Propidium iodide DNA staining and cell cycle analysis. In kind it is cell-based, human. To be noted: complex 1 1.14 µM 48 h, complex 8 7.22 µM 72 h. The protocol:
Once the cells were seeded in 25 cm^2 flasks at a density of 1 × 10^4 cells/cm^2, they were exposed, after 24 post-sendings, to the drug panel for 48 or 72 h. The cells were fixed according to the previously described methods before being stained with 50 μg/mL PI solution. The signal intensity was analysed with a Beckman Coulter Gallios (Brea, CA, USA) equipped with a blue solid diode laser (488 nm) and a red solid diode laser (635 nm), collecting fluorescence with a 620 nm-long pass filter.

Data set [4] deals with T1, recombinant human enzyme TrxR1 (Homo sapiens, UniProt Q16881).
T1 construct: purchased Sigma SRP 6081
T1 sequence (Q16881 161-647 limits assumed): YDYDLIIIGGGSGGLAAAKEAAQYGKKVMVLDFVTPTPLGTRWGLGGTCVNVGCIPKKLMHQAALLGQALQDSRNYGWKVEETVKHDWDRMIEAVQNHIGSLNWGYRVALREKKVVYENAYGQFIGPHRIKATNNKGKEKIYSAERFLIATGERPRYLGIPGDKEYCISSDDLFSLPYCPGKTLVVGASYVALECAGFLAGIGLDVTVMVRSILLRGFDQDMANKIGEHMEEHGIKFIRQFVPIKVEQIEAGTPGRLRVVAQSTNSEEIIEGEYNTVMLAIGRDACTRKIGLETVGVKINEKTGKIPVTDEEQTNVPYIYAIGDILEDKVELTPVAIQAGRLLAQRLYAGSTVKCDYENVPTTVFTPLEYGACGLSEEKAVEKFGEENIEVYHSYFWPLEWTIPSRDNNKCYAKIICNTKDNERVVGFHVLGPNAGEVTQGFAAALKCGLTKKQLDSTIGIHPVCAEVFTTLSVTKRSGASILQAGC
As to the kind of experiment: Thioredoxin reductase 1 (TrxR1) activity assay (DTNB). It counts as biochemical. The following applies: recombinant TrxR1, complexes at their IC50 values (1 1.14 μM, 8 7.22 μM), 5 min incubation. The protocol:
The in vitro interaction of metal complexes with the enzyme thioredoxin reductase was analyzed using a thioredoxin reductase assay kit (Sigma, CS0170, St Louis, MO, USA). The procedure instructions in the kit were followed, though the rat liver thioredoxin reductase was replaced with recombinant human enzyme TrxR1 (SRP 6081, Sigma, St Louis, MO, USA). The reaction was initiated by adding DTNB (100 mM), and conversion to TNB^− was monitored at 412 nm every 30 s for 22 min using a SPECTROstar Nano (BMG Labtech, Ortenberg, Germany) multiplate reader. The results were expressed as a percentage of the TrxR activity with respect to the control.

For data set [5], the system named is Caco-2 cells. As to the kind of experiment: Intracellular ROS levels, dichlorofluorescein assay. To be noted: Caco-2, different concentrations, 1, 3 and 24 h. It counts as cell-based, human. The protocol: After the Caco-2 cells were seeded in a 96-well plate at a density of 4 × 10^3 cells/well, the intracellular ROS levels were determined with a dichlorofluorescein assay, following the protocol used by Quero et al.. The cells were exposed to the drug panel for 1, 3 and 24 h, and then incubated with 20 µM 2′-7′-dichlorofluorescein diacetate (DCFH-DA) (Merck KGaA, Darmstadt, Germany) in DMEM. The generation of oxidized derivative DCF was monitored by measuring the increase of the fluorescence for 1 h, at an emission wavelength of 520 nm and an excitation of 485 nm, using a FLUOstar Omega (BMG Labtech, Ortenberg, Germany) multiplate reader. The results were expressed as percentage of the fluorescence with respect to the control, considering the fluorescence intensity as a reflection of the intracellular ROS levels.

In data set [6] the test system is differentiated Caco-2 cells. As to the kind of experiment: MTT cytotoxicity assay in differentiated Caco-2 cells (healthy cell model). In kind it is cell-based, human. To be noted: for decrease of cell viability: complexes at their IC50 (1 1.14 μM, 3 1.7 μM, 8 7.22 μM, 9 8.56 μM), 72 h; for IC50: treatment for 72 h. How it is done: as §1, §2, §3
Background: Formazan colour is commonly taken as a measure of viable cells.

For the molecule `O=S(=O)(NC(=S)[S][Au][PH](c1ccccc1)(c1ccccc1)c1ccccc1)c1ccccc1` [Complex 1, [Au(S2CNHSO2C6H5)(PPh3)]], the “decrease of cell viability” value in data set [1] and in data set [6] was “did not compromise the viability” in each case. For the same molecule, the “Log P7.4” value in data set [2] was found to be 0.75. The cell cycle distribution result in the data set with Caco-2 cells [3] is reported as “significantly increased the number of cells arrested in the G1 phase”. Also, the “decrease in TrxR activity” value in data set [4] was “around 80%”. Further, the “intracellular ROS levels” value with Caco-2 cells [5] was “time- and concentration-dependent pro-oxidant effect”. Further, the IC50 in data set [6] stood at 12.7 ± 0.47 µM.

For “[Au(S2CNHSO2-p-Me-C6H4)(IMePropargyl)] [Complex 8]”, the “decrease of cell viability” value in data set [1] and in data set [6] was “did not compromise the viability” in each case. In addition, the “Log P7.4” value in data set [2] was −0.13. For the same molecule, the cell cycle distribution entry with Caco-2 cells [3] is given as “significantly increased the number of cells arrested in the G1 phase”. Further, the “decrease in TrxR activity” value in data set [4] is recorded as “around 80%”. The “intracellular ROS levels” value with Caco-2 cells [5] was “time- and concentration-dependent pro-oxidant effect”. In data set [6], this molecule yielded an IC50 of 46.6 ± 3.26 µM.
